Tests used:
[1] = Cytotoxicity against MDCK cells assessed as cell death by MTT assay; type: cell-based, Canis lupus familiaris; details: dog, read-out: CTD50
[2] = Selectivity index, ratio of CTD50 for MDCK cells to ED50 for Influenza A virus (A/Puerto Rico/8/34(H1N1)); type: toxicity; details: dog, read-out: Selectivity Index

Row | SMILES | CC50 [1] | selectivity ratio [2]
1 | CC1(C)[C@@H]2CC[C@@]1(C)/C(=N/CCN=[N+]=[N-])C2 | > 1360 µM | > 3
2 | CNCc1cn(CC/N=C2\C[C@H]3CC[C@]2(C)C3(C)C)nn1 | 195 µM | < 2
3 | CC1(C)[C@@H]2CC[C@@]1(C)/C(=N/CCn1cc(CCO)nn1)C2 | > 1030 µM | > 19
4 | CCCCc1cn(CC/N=C2\C[C@H]3CC[C@]2(C)C3(C)C)nn1 | 303 µM | 5
5 | C#CCOCC/N=C1\C[C@H]2CC[C@]1(C)C2(C)C | 971 µM | 2
6 | CCOP(=O)(OCC)C(Cc1cn(CC/N=C2\C[C@H]3CC[C@]2(C)C3(C)C)nn1)P(=O)(OCC)OCC | 92 µM | 2
7 | CC1(C)[C@@H]2CC[C@@]1(C)/C(=N/CCn1cc([Si](C)(C)C)nn1)C2 | 32 µM | < 1
8 | CC(C)(C)OC(=O)Cn1cc(COCC/N=C2\C[C@H]3CC[C@]2(C)C3(C)C)nn1 | 204 µM | 8
9 | CC1(C)[C@@H]2CC[C@@]1(C)/C(=N/CCOCc1cn(CCO)nn1)C2 | > 938 µM | > 19
10 | CC(C)(O)Cc1cn(CC/N=C2\C[C@H]3CC[C@]2(C)C3(C)C)nn1 | > 987 µM | > 31
11 | CCOP(=O)(CCCCn1cc(COCC/N=C2\C[C@H]3CC[C@]2(C)C3(C)C)nn1)OCC | > 641 µM | > 2
12 | NC12CC3CC(CC(C3)C1)C2 [AMANTADINE] | 266 µM | 4
13 | CCOC(=O)C(C)(Cc1cn(CC/N=C2\C[C@H]3CC[C@]2(C)C3(C)C)nn1)P(=O)(OCC)OCC (stereo not given in full) | > 555 µM | 2
14 | CC1(C)[C@@H]2CC[C@@]1(C)/C(=N/CCn1cc(CCN3CCOCC3)nn1)C2 | > 836 µM | > 18
15 | CC1(C)[C@@H]2CC[C@@]1(C)/C(=N/CCOCc1cn(-c3ccccc3)nn1)C2 | 138 µM | 2
16 | CC1(C)[C@@H]2CC[C@@]1(C)/C(=N/CCn1cc(CO)nn1)C2 | > 1090 µM | 2
17 | CC(N)C12CC3CC(CC(C3)C1)C2 (stereo not given) [RIMANTADINE] | 344 µM | 5
18 | COCCNCCc1cn(CC/N=C2\C[C@H]3CC[C@]2(C)C3(C)C)nn1 | 865 µM | 34
19 | CC(N)[C@@H]1C[C@H]2CC[C@]1(C)C2 (stereo not given in full) | 1110 µM | 6
20 | CC1(C)[C@@H]2CC[C@@]1(C)/C(=N\CCOCc1cn(CC/N=C3\C[C@H]4CC[C@]3(C)C4(C)C)nn1)C2 | 117 µM | 1

Reference: ChEMBL document CHEMBL4038286, “Synthesis of camphecene derivatives using click chemistry methodology and study of their antiviral activity” (Bioorg Med Chem Lett, 2017)
